Key:
[1] = test system: carrageenan-induced rat paw edema; assay: carrageenan-induced rat paw edema method (anti-inflammatory activity); assay type: in vivo; conditions: compared with standard drug indomethacin
Experimental: For the experimental results described below, healthy male albino rats (200 g-220 g) were used for the study. The animals were kept in standard plastic animal cages in groups of six animals each with 12 hour light and dark cycle at 25±2° C. The rats were fed on standard rat chow and provided water ad libitum. The animals were acclimatized to laboratory conditions for a week prior to experiments. Anti-inflammatory activity of the synthesized compounds S1-S18 was determined by the carrageenan-induced rat paw edema method. The compounds were tested at equimolar oral dose and were compared with the standard drug indomethacin. […]. Three compounds, namely S14, S7 and S3 containing R=2,4,5-trimethoxyphenyl; […].
Anti-inflammatory activity was determined by a carrageenan-induced rat paw edema method. Male rats weighing 200 g were housed in a room with a controlled temperature and 12 hour light/12 hour dark cycle, housed in a specific pathogen free environment, and fed standard rodent chow and given water ad libitum. Each treatment group and vehicle group consisted of six randomly assigned animals. Compounds were administered p.o. suspension. Paw edema was induced by intradermal injection of 50 μL of 1% carrageenan into the sub plantar region of the right hind paw, after one hour of compound administration. […] The control group received only the vehicle. Increase in paw edema was compared with that in the control group and percent inhibition was calculated taking the values in the control group as 0% inhibition.

[2] = test system: nociceptive response on hot plate; assay: hot plate test (analgesic activity); assay type: in vivo; design: concentration or dose not given beside the values; conditions: hot plate 58° C.; mice; 120 min after injection
Experimental: Male albino Swiss mice (25 g body weight) were divided into various groups (n=6). Each mouse was initially placed on a hot plate thermostatically maintained at 58° C. […] This time was considered as the control reaction time. A cut-off time of 60 s was used to avoid damage to the paws. To test the analgesic activity of the compounds, each group of mice was treated with one dose of the test compounds. The reaction time was then retested at 0 hour and 120 min after injection (each animal acted as its own control). The percentage changes in the reaction were then calculated.

[3] = LD50 determination by the Karber method; conditions: in vivo, mouse, 24 hours observation
Experimental: The LD50 of compound S3 was determined by the Karber method. […] For LD50 determination, an observation was made for each mouse for 24 hours and symptoms of toxicity and rate of mortality in each group were noted. At the end of the study period, expired animals were counted for the calculation of LD50. The following method was used for the determination of LD50: LD50=LD100−Σ×(a×b)/n, where n is the total number of animals in a group, a is the difference between two successive doses of administered extract/substance, b is the average number of dead animals in two successive doses, and LD100 is the lethal dose causing 100% death of all test animals.

[4] = test system: ethanol-induced gastric ulcer; assay: ethanol induced ulcer model (gastro-protective activity: ulcer index, mucus, PAS staining, histology); assay type: in vivo, rat
Excerpt: Gastric mucus plays crucial role in gastro-protection. […] The mucus was formed from mucin-type glycoprotein. The mucus gel adhering to the gastric mucosal surface defends the epithelium beneath against acid, pepsin and necrotizing agents, such as ethanol and indomethacin. […] Gastric wall mucus coating might be relieved in the repair of the damaged gastric epithelium. […] The rats were grouped into five groups (n=6). Group I and II received saline solution and served as negative-control and ulcer-control, respectively. […] The animals were sacrificed 1 hour later under anesthesia and their stomachs were quickly removed for further studies. Periodic acid-Schiff (PAS) staining was used to observe the glycogen level in control and pretreated animals. […] Ethanol-induced gastric ulcers result from several mechanisms, including reduction of gastric mucus and impaired mucosal permeability, and leads to increased leakage of hydrogen ions from the lumen and decreased transluminal membrane potential difference. With regard to the gross gastric lesion evaluation, the stomach of each rat was opened along the greater arc and washed with saline water to remove gastric contents. Gastric ulcers appear as elongated bands on the gastric mucosa with hemorrhagic lesions being parallel to the long axis of the stomach. The mucosa was assessed for damage under dissecting microscope (1.8×) and a planimeter was used to measure the ulcers area (hemorrhagic lesions). The length and width of each lesion were measured and the sum of the area of all lesions for each stomach was expressed as the ulcer area (mm^2). To determine mucus production of the gastric mucosa, the gastric mucosa of each rat was gently scraped using a glass slide and the mucus obtained was weighed using a precision electronic balance. For the histologic studies, gastric tissues were collected and fixed in 10% formalin after sacrifice. Then, each sample was embedded in paraffin and cut into 5 μm thick slices for morphological and pathological evaluation. Tissue sections were stained with hematoxylin and eosin (H & E) and examined under a light microscope.

COX-1 = assay: Western blot of COX-1 expression in rat gastric mucosa damaged by ethanol; assay type: in vivo; conditions: ethanol induced model, S3 25.6 mg/kg, indomethacin 25 mg/kg
gastric mucosa = conditions: rat, in vivo
Experimental: For acute ulcerogenesis testing, albino rats were divided into different groups consisting of six animals in each group. […] Control rats received p.o. administration of vehicle (suspension of 1% methyl cellulose). Food (but not water) was removed 24 hours before administration of the test compounds. After the drug treatment, the rats were fed a normal diet for 17 hours and then sacrificed. The stomach was removed and opened along the greater curvature, washed with distilled water and cleaned gently by dipping in saline. The mucosal damage was examined by means of a magnifying glass. For each stomach, the mucosal damage was assessed according to the following scoring system: 0.5 redness; 1.0 spot ulcers; 1.5 hemorrhagic streaks; 2.0 ulcers <3 but ≦5; 3.0 ulcers >5. All of the compounds were tested at equimolar oral doses.

[5] = test system: malondialdehyde (MDA) content; conditions: rat, in vivo
Experimental: The mixture was heated at 95° C. for 60 minutes. After cooling, the reactants were supplemented with 5 mL of a mixture of n-butanol:pyridine (15:1 v/v), shaken vigorously for 1 minute and centrifuged for 10 minutes at 4000 rpm. The supernatant organic layer was taken out and absorbance was measured at 532 nm on a UV spectrophotometer. The results were expressed as nmol MDA/100 mg tissue. Data are expressed as mean±S.E.M., and the student's t-test was applied to determine the significance of the difference between the standard group and rats treated with the test compounds. The lipid peroxidation was measured as nanomoles of MDA content/100 mg of liver and kidney tissue.

COX-2 = assay: Western blot of COX-2 expression in rat gastric mucosa damaged by ethanol; conditions: ethanol induced model, S3 25.6 mg/kg, indomethacin 25 mg/kg
Experimental: A Western blot was performed for COX-1. […] For the Western blot analysis, 20 μg of protein was transferred to PVDF membranes, blocked in 5% skim milk in TBS buffer 1% Tween 20, and then incubated overnight with the COX-1, COX-2 and β-actin, followed by HRP-conjugated anti-rat/rabbit/goat antibodies for 2 hours at 25° C. Bands were visualized with the Luminata Western Chemiluminescent HRP Substrates and densitometric analysis of bands were assessed using LI-COR C-DiGit blot scanners.

[6] = pretreated rats, ethanol induced ulcer

SMILES: COc1ccc2[nH]c(C)c(CC(=O)N/N=C/c3cccc([N+](=O)[O-])c3)c2c1 [Compound S3, 2-(5-methoxy-2-methyl-1H-indol-3-yl)-N′-[(E)-(3-nitrophenyl)methylidene] acetohydrazide]
- anti-inflammatory activity (in words) [1]: most potent compounds with significant anti-inflammatory activity
- analgesic activity (percentage change in reaction time) [2]: 61.36%
- LD50 at 24 h [3]: 35 mg/kg
- histology of gastric tissue (in words) ([4]; S3 25.6 mg/kg, indomethacin 25 mg/kg, ethanol induced ulcer): normal glandular pattern with mild inflammation and infiltration of leucocytes
- PAS staining of gastric mucosa (in words) [4, 6]: substantially continuous PAS-positive mucous gel layer
- mucus production by gastric mucosa (in words) [4, 6]: increased gradually
- Ulcer index Mean ± SEM ([4]; pretreatment orally (S3 25.6 mg/kg, indomethacin 25 mg/kg) 1 hour before ethanol 95% 20 mL/kg, rats): 2.83±0.87 mm^2
- COX-1 expression / inhibition by Western blot (in words) (COX-1): weak COX-1 expression
- ulcerogenic activity (in words) (gastric mucosa): less ulcerogenic than the reference drug indomethacin
- lipid peroxidation (in words) [5]: maximum reduction in gastric ulceration and lipid peroxidation
- COX-2 expression / inhibition by Western blot (in words) (COX-2): potent COX-2 inhibition

From US9808443B1, “Cyclooxygenase inhibitors” (KING SAUD UNIVERSITY, priority 2016, dated 2017)
